Experimental findings from PubChem BioAssay (NCI) are described below.

Test systems include A549 NSCLC; ACHN renal; KM12 colon; MDA-MB-231 breast; NCI-H522 lung; NCI/ADR-RES ovarian; SF-539 CNS; SNB-75 CNS; TK-10 renal; DU-145 prostate.
Assay in all cases: growth of human tumour cells (NCI), 48 h

Values joined by “and” are separate entries in the source; they are usually repeats but may differ in a detail not shown here. Equal entries are not always repeated.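 Where inhibition never reached the appropriate level, the endpoint shown equals the highest concentration tested. Otherwise, values were interpolated linearly from a five-concentration, 48-hour dose response in 96-well plates. Here, GI50 denotes the concentration required for 50% inhibition of growth. At the TGI there is no net growth.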

For `O=C(c1ccccc1)C1OC1c1ccc([N+](=O)[O-])cc1` (configuration not stated), the GI50 with A549 NSCLC was 24.9 µM; in the test on ACHN renal, 6.08 µM; with KM12 colon, 3.83 µM; in the test on MDA-MB-231 breast, 11 µM; with NCI-H522 lung, 2.13 µM; with NCI/ADR-RES ovarian it was 2.58 µM. The results for the GI50 with SF-539 CNS, in the test with SNB-75 CNS and with TK-10 renal were 10.2 µM, 2.92 µM and 6.1 µM, respectively. In addition, the TGI is more than 100 µM with A549 NSCLC; more than 100 µM with ACHN renal; 17.7 µM with KM12 colon; 33.1 µM in the test on MDA-MB-231 breast; 7.11 µM in the test with NCI-H522 lung; 9.36 µM with NCI/ADR-RES ovarian. For the same compound, the TGI with SF-539 CNS was found to be 76.8 µM; with SNB-75 CNS, 72.7 µM; in the test with TK-10 renal, 50.8 µM.

Regarding `Cc1cccc(C)c1NC(=O)C1C(=O)N(c2c(C)cccc2C)C(=O)/C1=N\N` (configuration not stated), the TGI in the test on A549 NSCLC, with ACHN renal, in the test with NCI-H522 lung, in the test on SF-539 CNS, in the test on SNB-75 CNS and with TK-10 renal was more than 100 µM each time.

`CSc1nc(NC2OC(COC(C)=O)C(OC(C)=O)C(OC(C)=O)C2OC(C)=O)c2c(n1)OCC2=O` (configuration not stated): the TGI in the test with A549 NSCLC, in the test on ACHN renal, with KM12 colon, in the test on NCI-H522 lung, with SF-539 CNS and in the test with SNB-75 CNS was more than 100 µM throughout. This compound gave a TGI in the test with TK-10 renal of more than 100 µM.

For `Cn1cnc([N+](=O)[O-])c1Sc1nccn1-c1cccc2ccccc12`, the TGI in the test on A549 NSCLC is more than 100 µM; with ACHN renal, 94.2 µM; in the test on KM12 colon, more than 100 µM; in the test with NCI-H522 lung, 22.4 µM; in the test with SF-539 CNS, 90.2 µM; in the test with SNB-75 CNS, 87.5 µM. In the test on TK-10 renal, this compound registered a TGI of more than 100 µM.

Turning to `COC(=O)C(C(=O)OC)C1CCCC(=O)C1` (configuration not stated), the TGI in the test with A549 NSCLC, in the test on ACHN renal, in the test with KM12 colon, with SF-539 CNS, in the test on SNB-75 CNS and in the test on TK-10 renal was more than 100 µM in each case.

In the case of `O=C(O)CCC(N=Cc1nc(-c2ccccc2)oc1O)C(=O)O` (configuration not stated), the TGI in the test on A549 NSCLC, with ACHN renal, in the test with KM12 colon, in the test on NCI-H522 lung, in the test with SF-539 CNS and with SNB-75 CNS was more than 100 µM in each case. In the test with TK-10 renal, this compound gave a TGI of more than 100 µM.

As to `C[C@]12CC/C(=N\O)C=C1CC[C@@H]1C2CC[C@@]2(C)C1CC[C@@H]2OC1CCCCO1` (some centres not stated), the TGI in the test on A549 NSCLC was 53 µM; with ACHN renal, 30.3 µM; with KM12 colon, 33.2 µM; in the test with NCI-H522 lung it was 34.7 µM; in the test on SF-539 CNS, more than 10 µM; in the test on SNB-75 CNS it was 33.2 µM. The TGI with TK-10 renal amounted to 42.2 µM.

In the case of `O=c1c(Br)cc2nc3ccccc3sc-2c1Br`, the TGI was more than 100 µM with A549 NSCLC; more than 100 µM with ACHN renal; more than 100 µM in the test on KM12 colon; 36.2 µM in the test on NCI-H522 lung; more than 100 µM in the test with SF-539 CNS; more than 100 µM with SNB-75 CNS. The TGI in the test with TK-10 renal is more than 100 µM.

On to `CCC/C(=N\NC(=S)N1CC2CCC(CC2)C1)c1ccccn1`, for which the GI50 in the test on A549 NSCLC is 0.122 µM; in the test with ACHN renal, 0.0808 µM; with KM12 colon, 0.0382 µM; in the test with SF-539 CNS, 1.16 µM; with SNB-75 CNS it was 0.595 µM. Also, the TGI in the test with A549 NSCLC is 5.23 µM and 2.01 µM; with ACHN renal, 2.72 µM and 2.09 µM; in the test with DU-145 prostate, 2.82 µM; with KM12 colon, 0.631 µM and 1.32 µM; with MDA-MB-231 breast it was 2.75 µM; with NCI-H522 lung, 0.738 µM. In addition, the TGI was 1.55 µM and 5.36 µM in the test with SF-539 CNS; 3.21 µM and 2.18 µM in the test with SNB-75 CNS; 5.84 µM and 2.9 µM with TK-10 renal.

On to `O=c1ncc(F)cn1C1OC(CO)C(O)C1O` (configuration not stated), for which the TGI in the test with A549 NSCLC was more than 100 µM; in the test on ACHN renal it was more than 100 µM; in the test on KM12 colon, more than 51.2 µM; in the test on NCI-H522 lung, more than 70.2 µM; in the test on SF-539 CNS, more than 88 µM; with SNB-75 CNS, more than 65.1 µM. Moreover, the TGI in the test with TK-10 renal is more than 100 µM.

As to `CC(=O)OC[C@@H](COC(=O)/C=C/c1ccc(O)cc1)OC1OC(CO)C(O)C(O)C1O` (some centres not stated), the TGI in the test with A549 NSCLC, in the test on ACHN renal, in the test with DU-145 prostate, in the test with KM12 colon, in the test with NCI-H522 lung and in the test on SF-539 CNS was more than 100 µM throughout. For the same compound, the TGI in the test with SNB-75 CNS and in the test with TK-10 renal was more than 100 µM in each case.

For the compound `CCOC(=O)N1CCC(=O)C(CNC23CC4CC(CC(C4)C2)C3)C1` (configuration not stated), the TGI in the test with A549 NSCLC was more than 100 µM; in the test on ACHN renal, 34.8 µM; in the test with KM12 colon, more than 100 µM; in the test with NCI-H522 lung, 34 µM; with SF-539 CNS, more than 100 µM; with TK-10 renal, more than 100 µM.

With `CCC[CH2][Sn]1([CH2]CCC)[O]CC(CN(C)Cc2ccccc2)[O]1` (configuration not stated), the GI50 in the test with A549 NSCLC is 19.6 µM; in the test on ACHN renal, 11.2 µM; with KM12 colon, 13.9 µM; with NCI-H522 lung, 1.94 µM; in the test with SF-539 CNS, 7.2 µM; in the test with SNB-75 CNS it was 3.47 µM. Also, the GI50 in the test on TK-10 renal was 3.63 µM. Moreover, the TGI in the test on A549 NSCLC was 38.6 µM; in the test with ACHN renal it was 23.3 µM; in the test with KM12 colon, 26.8 µM; with NCI-H522 lung, 4.61 µM; in the test on SF-539 CNS, 20.6 µM; in the test with SNB-75 CNS it was 16.2 µM. Besides, the TGI in the test with TK-10 renal is 11.4 µM.

Turning to `O=C(c1ccccc1)C1OC12C(=O)Nc1c(Cl)cc(Cl)cc12` (configuration not stated), the TGI in the test with A549 NSCLC is more than 100 µM; with ACHN renal it was more than 85.1 µM; in the test with KM12 colon, more than 100 µM; in the test with NCI-H522 lung, 34.6 µM; with SF-539 CNS, more than 100 µM; in the test on SNB-75 CNS, 29.5 µM. The compound also yielded a TGI in the test on TK-10 renal of more than 100 µM.

As to `COC(=O)C(C(=O)C(=O)Nc1ccc([N+](=O)[O-])cc1[N+](=O)[O-])c1nc2ccc(Cl)cc2[nH]c1=O` (configuration not stated), the TGI in the test on A549 NSCLC, in the test with ACHN renal, in the test with KM12 colon, with SF-539 CNS, in the test with SNB-75 CNS and in the test on TK-10 renal was more than 100 µM each time.
